From the CheMixHub viscosity set

Test: xn = mol fraction of the nth substance listed

CCOCCO + CS(C)=O
viscosity [mPa·s], 101.33 kPa
Conditions	298.15 K	303.15 K	308.15 K	313.15 K	318.15 K
x1 = 0.0436	2	1.8	1.66	1.52	1.38
x1 = 0.0879	2	1.8	1.66	1.53	1.38
x1 = 0.1327	2	1.81	1.67	1.53	1.38
x1 = 0.1781	2.01	1.81	1.67	1.53	1.38
x1 = 0.2242	2.01	1.82	1.68	1.54	1.38
x1 = 0.2709	2.02	1.82	1.68	1.54	1.38
x1 = 0.3183	2.02	1.82	1.68	1.54	1.38
x1 = 0.3663	2.03	1.83	1.69	1.54	1.38
x1 = 0.415	2.02	1.83	1.68	1.54	1.38
x1 = 0.4644	2.02	1.82	1.68	1.54	1.38
x1 = 0.5145	2.02	1.82	1.68	1.54	1.37
x1 = 0.5653	2.01	1.81	1.67	1.53	1.37
x1 = 0.6169	2.01	1.81	1.67	1.52	1.36
x1 = 0.6692	1.99	1.79	1.65	1.51	1.35
x1 = 0.7223	1.98	1.78	1.64	1.49	1.33
x1 = 0.7762	1.96	1.75	1.62	1.48	1.31
x1 = 0.8309	1.94	1.73	1.59	1.45	1.29
x1 = 0.8864	1.92	1.71	1.56	1.43	1.27
x1 = 0.9428	1.88	1.67	1.53	1.39	1.24

CNCCO + O
viscosity [mPa·s]
Conditions	293.15 K	298.15 K	303.15 K	308.15 K	313.15 K	318.15 K	323.15 K
100 kPa, x2 = 0.51	26.3	–	–	–	9.61	–	6.36
101 kPa, x1 = 0.0844	–	–	2.541	2.165	1.868	1.625	–
101 kPa, x1 = 0.1894	–	–	6.505	5.276	4.347	3.612	–
101 kPa, x1 = 0.3001	–	–	11.33	8.968	7.206	5.87	–
101 kPa, x1 = 0.4014	–	–	14.46	11.33	9.042	7.311	–
101 kPa, x1 = 0.448	–	–	15.21	11.93	9.52	–	–
101 kPa, x1 = 0.5016	–	–	15.62	12.24	9.767	–	–
101 kPa, x1 = 0.5474	–	–	15.45	12.14	9.666	–	–
101 kPa, x1 = 0.6004	–	–	15.17	11.95	9.57	–	–
101 kPa, x1 = 0.7021	–	–	13.66	10.84	8.761	–	–
101 kPa, x1 = 0.7975	–	–	11.89	9.564	7.81	–	–
101 kPa, x1 = 0.9048	–	–	10.09	8.218	6.771	–	–
101.3 kPa, x1 = 0.0125	1.234	1.086	0.963	0.863	0.778	0.705	0.644
101.3 kPa, x1 = 0.138	6.87	5.53	4.42	3.65	3.07	2.61	2.25
101.3 kPa, x1 = 0.265	16.7	12.81	–	7.99	6.46	5.31	4.41
101.3 kPa, x2 = 0.3167	22.4	17.24	13.51	10.76	8.699	7.129	5.914
101.3 kPa, x2 = 0.5104	27.48	20.95	16.28	12.83	10.25	8.308	6.794
101.3 kPa, x2 = 0.641	22.98	17.41	13.47	10.6	8.484	6.887	5.67
101.3 kPa, x2 = 0.7356	17.61	–	10.58	8.433	6.828	5.626	4.688
101.3 kPa, x2 = 0.8064	10.8	8.438	6.716	5.451	4.498	3.765	3.181
101.3 kPa, x2 = 0.8623	6.917	5.549	4.52	3.745	3.143	2.663	2.282
101.3 kPa, x2 = 0.9067	4.02	–	2.789	2.363	2.02	1.75	1.536
101.3 kPa, x2 = 0.9434	2.462	2.089	1.794	1.557	1.364	1.206	1.076
101.3 kPa, x2 = 0.974	1.532	1.334	1.172	1.041	0.929	0.838	0.759
101.33 kPa, x1 = 0.01	–	1.089	0.97	–	0.785	–	–
101.33 kPa, x1 = 0.0217	–	1.366	1.198	–	0.949	–	–
101.33 kPa, x1 = 0.0333	–	1.692	1.469	–	1.133	–	–
101.33 kPa, x1 = 0.0467	–	2.146	1.836	–	1.384	–	–
101.33 kPa, x1 = 0.0622	–	2.759	2.315	–	–	–	–
101.33 kPa, x1 = 0.0772	–	3.465	2.815	–	2.049	–	–
101.33 kPa, x1 = 0.1167	–	5.735	4.525	–	3.075	–	–
101.33 kPa, x1 = 0.1656	–	9.455	7.046	–	4.573	–	–
101.33 kPa, x1 = 0.2308	–	14.59	10.71	–	6.551	–	–
101.33 kPa, x1 = 0.3169	–	19.66	14.66	–	8.805	–	–
101.33 kPa, x1 = 0.3893	–	21.8	16.85	–	10.24	–	–
101.33 kPa, x1 = 0.449	–	22.25	17.79	–	10.9	–	–
101.33 kPa, x1 = 0.5356	–	22.31	17.99	–	11.21	–	–
101.33 kPa, x1 = 0.6845	–	21.05	16.24	–	10.16	–	–
101.33 kPa, x1 = 0.8213	–	17.45	13.21	–	8.401	–	–
101.33 kPa, x1 = 0.9202	–	13.96	11	–	7.227	–	–
101.33 kPa, x1 = 0.956	–	12.96	10.26	–	6.823	–	–
